Key:
Assay in all cases: relative viability (nuclei count vs DMSO), 5 days (fraction); higher = more cells survive
GSK126 + Dasatinib = compound: CC[C@H](C)N1C=C(C2=C(C=C(C=C21)C3=CN=C(C=C3)N4CCNCC4)C(=O)NCC5=C(C=C(NC5=O)C)C)C [GSK126] + Cc1nc(Nc2ncc(C(=O)Nc3c(C)cccc3Cl)s2)cc(N2CCN(CCO)CC2)n1 [Dasatinib] (partner 0.075 µM)
Procedure, shortened: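 Cells from lung cancer lines were seeded into 1536-well plates and, one day later, dosed by pin tool. Treatments were either a single drug or a fixed dose of an anchor drug with five library-drug doses (not always all listed) in √10 steps. After 5 days, nuclei were stained in a one-step fixation (final 0.05% Triton X-100, 1% formaldehyde, 1 ug/ml Hoechst) and counted on 4× images, and relative viability is the treated-to-vehicle nuclei ratio, as the median of duplicate plates.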

Carboplatin = compound: C1CC(C1)(C(=O)O)C(=O)O.[NH2-].[NH2-].[Pt+2] [Carboplatin]
Procedure, shortened: (§1)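 Lung cancer cell lines in 1536-well plates were kept overnight at 37 °C, then pinned with five library-drug doses (not always all listed) spaced by √10 on vehicle-anchored plates. After 5 days without medium change, cells were fixed, permeabilised and Hoechst-stained in one step, imaged at 4×, and nuclei were counted with MetaXpress. Viability is treated-well nuclei divided by vehicle-well nuclei, taken as the median over plates. Plates passed only with control CV below 25% and at least one doubling.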

MLN4924 = compound: NS(=O)(=O)OC[C@@H]1C[C@@H](n2ccc3c(N[C@H]4CCc5ccccc54)ncnc32)C[C@@H]1O [MLN4924]
Procedure, shortened: as §1

GSK126 = compound: CC[C@H](C)N1C=C(C2=C(C=C(C=C21)C3=CN=C(C=C3)N4CCNCC4)C(=O)NCC5=C(C=C(NC5=O)C)C)C [GSK126]
Procedure, shortened: as §1

Row | Cell Line | relative viability (GSK126 + Dasatinib; first compound 0.08 µM) | relative viability (GSK126 + Dasatinib; first compound 0.253 µM) | relative viability (GSK126 + Dasatinib; first compound 0.8 µM) | relative viability (GSK126 + Dasatinib; first compound 2.53 µM) | relative viability (GSK126 + Dasatinib; first compound 8 µM) | relative viability (Carboplatin; 0.08 µM) | relative viability (Carboplatin; 0.253 µM) | relative viability (Carboplatin; 0.8 µM) | relative viability (Carboplatin; 2.53 µM) | relative viability (Carboplatin; 8 µM) | relative viability (MLN4924; 0.04 µM) | relative viability (MLN4924; 0.1265 µM) | relative viability (MLN4924; 0.4 µM) | relative viability (MLN4924; 1.265 µM) | relative viability (MLN4924; 4 µM) | relative viability (GSK126; 0.08 µM) | relative viability (GSK126; 0.253 µM) | relative viability (GSK126; 0.8 µM) | relative viability (GSK126; 2.53 µM) | relative viability (GSK126; 8 µM)
1 | NCI-H2347 | 0.257 | 0.331 | 0.347 | 0.305 | 0.304 | 1.05 | 1 | 1.07 | 1.06 | 0.909 | 0.963 | 0.975 | 0.584 | 0.406 | 0.386 | 1.08 | 0.976 | 1.04 | 1.05 | 1
2 | NCI-H2405 | 0.203 | 0.207 | 0.188 | 0.19 | 0.189 | 1.1 | 1 | 1.05 | 1.03 | 0.885 | 1.06 | 0.979 | 0.586 | 0.29 | 0.27 | 1.03 | 0.946 | 0.98 | 0.984 | 1.03
3 | NCI-H3122 | 0.969 | 0.728 | 0.819 | 0.748 | 1.2 | 1.01 | 1.01 | 1.02 | 1.01 | 0.968 | 0.92 | 0.585 | 0.325 | 0.139 | 0.135 | 1.03 | 1 | 0.966 | 1.02 | 1
4 | PC-3 [JPC-3] | 1.12 | 0.997 | 0.997 | 1.02 | 0.978 | 1.14 | 1.08 | 1.05 | 0.992 | 0.96 | 0.994 | 1.1 | 0.397 | 0.432 | 0.396 | 1.03 | 0.999 | 1.06 | 1.03 | 1.12
5 | PC-14 | 0.261 | 0.236 | 0.231 | 0.255 | 0.222 | 1.09 | 0.998 | 0.997 | 0.684 | 0.309 | 1.04 | 0.93 | 0.624 | 0.153 | 0.111 | 1.02 | 1.01 | 0.935 | 1.03 | 0.942
6 | RERF-LC-KJ | 0.883 | 0.886 | 0.756 | 0.717 | 0.703 | 0.978 | 1.02 | 0.939 | 0.88 | 0.702 | 0.879 | 0.738 | 0.233 | 0.211 | 0.228 | 1.12 | 1.1 | 1.02 | 1.01 | 1.05
7 | SK-LU-1 | 0.213 | 0.231 | 0.189 | 0.199 | 0.173 | 1.16 | 1.07 | 1.06 | 0.975 | 0.802 | 0.99 | 0.799 | 0.369 | 0.191 | 0.201 | 1.01 | 1.05 | 1.02 | 1.14 | 1.08
8 | SK-MES-1 | 0.446 | 0.47 | 0.307 | 0.305 | 0.373 | 1.07 | 0.991 | 1.02 | 0.974 | 0.918 | 0.999 | 0.846 | 0.563 | 0.222 | 0.221 | 1.03 | 0.999 | 0.985 | 1.04 | 1.08
9 | SW 900 | 0.695 | 0.494 | 0.622 | 0.508 | 0.548 | 0.808 | 0.774 | 0.822 | 0.837 | 0.68 | 0.68 | 0.825 | 0.384 | 0.21 | 0.184 | 0.844 | 0.853 | 0.788 | 0.896 | 0.892
10 | SW 1573 | 0.709 | 0.659 | 0.515 | 0.479 | 0.524 | 1.05 | 1.02 | 0.992 | 0.972 | 0.702 | 1.16 | 0.954 | 0.332 | 0.0817 | 0.0856 | 1.21 | 1.08 | 1.02 | 1.05 | 1.24

From the supplement of paper PMC10307832
